Laboratory results: patent US9326513B2, “Fungicidal compositions” (Syngenta Participations AG, priority 2011, dated 2016)

Legend:
Assay type in all cases: in vivo
Settings in all cases: foliar, compared to untreated control leaf disks, read-out: disease control
[1] = system: Blumeria graminis f. sp. tritici (Erysiphe graminis f. sp. tritici); test: Blumeria graminis f. sp. tritici / wheat / leaf disc preventative (powdery mildew on wheat)
Outline: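 Wheat leaf segments (cv. Kanzler) on agar were sprayed with formulated compound in water, inoculated with powdery mildew 1 day later, and kept at 20° C, 60% rh (24 h dark, then 12 h light/12 h dark). Percent disease control versus untreated scored 6-8 days after application; tested at 200 ppm.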

[2] = system: Puccinia recondita f. sp. tritici; test: Puccinia recondita f. sp. tritici / wheat / leaf disc preventative (brown rust)
Excerpt: Puccinia recondita f. sp. tritici/Wheat/Leaf Disc Preventative (Brown Rust) Wheat leaf segments cv. Kanzler were placed on agar in multiwell plates (24-well format) and sprayed with the formulated test compound diluted in water. The leaf disks were inoculated with a spore suspension of the fungus 1 day after application.

[3] = system: Puccinia recondita f. sp. tritici; test: Puccinia recondita f. sp. tritici / wheat / leaf disc curative (brown rust)
Experimental: Puccinia recondita f. sp. tritici/Wheat/Leaf Disc Curative (Brown Rust) Wheat leaf segments cv. Kanzler are placed on agar in multiwell plates (24-well format). The leaf segments are inoculated with a spore suspension of the fungus. Plates were stored in darkness at 19° C. and 75% rh. The formulated test compound diluted in water was applied 1 day after inoculation.

Pyrenophora teres = Pyrenophora teres / barley / leaf disc preventative (net blotch)
Excerpt: Pyrenophora teres/Barley/Leaf Disc Preventative (Net Blotch) Barley leaf segments cv. Hasso were placed on agar in a multiwell plate (24-well format) and sprayed with the formulated test compound diluted in water. The leaf segments were inoculated with a spore suspension of the fungus 2 days after application.

Measured: pest or weed control at 200 ppm

CCN(/C=N/c1cc(Br)c(OCCCC(C)C)nc1C)CC [Q.001]
≥ 50%: all assays above

CCN/C=N/c1cc(Br)c(OCCCC(C)C)nc1C [Q.004]
≥ 50%: all assays above

CCN(C)/C=N/c1cc(Br)c(OCC[C@H]2CC[C@@H](O)CC2)nc1C [Q.005]
≥ 50%: all assays above

CCN(C)/C=N/c1cc(C)c(OCCCC(C)C)nc1C [Q.007]
≥ 50%: all assays above

CCN(C)/C=N/c1cc(Br)c(OCCc2ccc(OC)cc2)nc1C [Q.011]
≥ 50%: all assays above

CCN(C)/C=N/c1cc(Br)c(OCCc2ccc(Br)cc2)nc1C [Q.012]
≥ 50%: all assays above

CCN(C)/C=N/c1cc(Br)c(OC(C)CCc2ccc(OC)cc2)nc1C (stereo not shown) [Q.013]
≥ 50%: all assays above

CCN(C)/C=N/c1cc(Br)c(OCCCc2ccc(OC)cc2)nc1C [Q.014]
≥ 50%: all assays above

CCN(C)/C=N/c1cc(Br)c(OCCC[Si](C)(C)C)nc1C [Q.015]
≥ 50%: all assays above

CCN(C)/C=N/c1cc(Br)c(OCC#Cc2ccccc2)nc1C [Q.016]
≥ 50%: all assays above

CCN(C)/C=N/c1cc(Br)c(OC2CCc3ccc(OC)cc3C2)nc1C (stereo not shown) [Q.018]
≥ 50%: all assays above

CCN(C)/C=N/c1cc(Br)c(OC2CCc3c(cccc3OC)C2)nc1C (stereo not shown) [Q.019]
≥ 50%: all assays above

CCN(C)/C=N/c1cc(Br)c(OCC#Cc2cccc(OC)c2)nc1C [Q.020]
≥ 50%: all assays above

CCN(C)/C=N/c1cc(Br)c(OC/C=C\c2cccc(OC)c2)nc1C [Q.023]
≥ 50%: all assays above

CCN(C)/C=N/c1cc(Br)c(OC2CCc3cccc(OC)c3C2)nc1C (stereo not shown) [Q.024]
≥ 50%: all assays above

CCN(C)/C=N/c1cc(Br)c(OC2CCc3cc(F)ccc3C2)nc1C (stereo not shown) [Q.025]
≥ 50%: all assays above

CCN(C)/C=N/c1cc(Br)c(OCCCCc2ccc(F)cc2)nc1C [Q.026]
≥ 50%: all assays above

CCN(C)/C=N/c1cc(Br)c(OC2CCC3CCCCC3C2)nc1C (stereo not shown) [Q.027]
≥ 50%: all assays above

CCN(C)/C=N/c1cc(Br)c(OCC2CC=CCC2)nc1C (stereo not shown) [Q.029]
≥ 50%: all assays above

CCN(C)/C=N/c1cc(Br)c(OCC2CCCC(C#N)C2)nc1C (stereo not shown) [Q.032]
≥ 50%: all assays above

CCN(C)/C=N/c1cc(Br)c(OC2CCc3ccc(C(C)=O)cc3C2)nc1C (stereo not shown) [Q.033]
≥ 50%: all assays above

C=CCCCOc1nc(C)c(/N=C/N(C)CC)cc1Br [Q.034]
≥ 50%: all assays above

CCN(C)/C=N/c1cc(Br)c(OCCCC(C)O)nc1C (stereo not shown) [Q.035]
≥ 50%: all assays above

CCN(C)/C=N/c1cc(Br)c(OC2CCN(C(=O)OC(C)(C)C)CC2)nc1C [Q.038]
≥ 50%: all assays above

CCN(C)/C=N/c1cc(Br)c(OC2CCc3ccc(/C(C)=N/OC)cc3C2)nc1C (stereo not shown) [Q.039]
≥ 50%: all assays above

CCN(C)/C=N/c1cc(Br)c(OC2CCc3ccc(C(C)O)cc3C2)nc1C (stereo not shown) [Q.044]
≥ 50%: all assays above

CCN(C)/C=N/c1cc(Br)c(OCCCCc2ccc(OC)cc2)nc1C [Q.046]
≥ 50%: all assays above

CCN(C)/C=N/c1cc(Br)c(OCCCCc2ccc(Br)cc2)nc1C [Q.047]
≥ 50%: all assays above

CCN(C)/C=N/c1cc(Br)c(OCCCC(C)F)nc1C (stereo not shown) [Q.052]
≥ 50%: all assays above

Cc1nc(OC2CCC3(CC2)OCCO3)c(Br)cc1/N=C/N(C)C [Q.054]
≥ 50%: all assays above

CC(=O)N1CCC(Oc2nc(C)c(/N=C/N(C)C)cc2Br)CC1 [Q.055]
≥ 50%: all assays above

CCN(C)/C=N/c1cc(Br)c(OCc2snc(-c3ccc(F)cc3)c2Br)nc1C [Q.125]
≥ 50%: [1] | [2] | Pyrenophora teres

CCN(C)/C=N/c1cc(Br)c(OC2Cc3cc(Br)c(OC)cc3C2)nc1C (stereo not shown) [Q.202]
≥ 50%: [1] | [2] | Pyrenophora teres

CCN(C)/C=N/c1cc(Br)c(OC(C)c2ccsc2)nc1C (stereo not shown) [Q.245]
≥ 50%: [1] | [2] | Pyrenophora teres
